Measured values taken from patent US12338229B2, “Small molecule stimulators of steroid receptor coactivator-3 and methods of their use as cardioprotective and/or vascular regenerative agents” (BAYLOR COLLEGE OF MEDICINE, priority 2018, dated 2025).

What was measured:
[1] = tested on: SRC-1, SRC-2 or SRC-3 fused with the DNA binding domain of Gal4; experiment: Gal4 luciferase reporter (pG5-luc / pBIND-SRC) in HeLa cells; type: cell-based; details: pG5-luc + pBIND-SRC-1, -2 or -3
Text: The compounds described herein stimulate SRC intrinsic transcriptional activity. HeLa cells transfected with a Gal4 responsive luciferase reporter (pG5-luc) and a construct encoding SRC-1, SRC-2 or SRC-3 fused with the DNA binding domain of Gal4 (pBIND-SRC-1, pBIND-SRC-2 or pBIND-SRC-3) were exposed to treatments with compounds as described herein, including MCB-613, Compound 10-1, and Compound 10-2.

[2] = tested on: cardiac fibroblasts; experiment: Tube formation assay; type: cell-based, mice; details: adult cardiac fibroblasts, 6 μM, 24 hours
Protocol: Tube formation assay. Cardiac fibroblasts were treated with either DMSO or 6 μM MCB-613. Twenty four hours post treatment, drug was washed off by rinsing the cells twice with PBS. The cells were then conditioned with endothelial cell growth media for 24 hours. Post conditioning, cells were plated on growth factor reduced matrigel (10 mg/ml) to allow for tube formation overnight. The next day tubes were stained with Calcein AM and imaged using the Cytation imaging system.

[3] = tested on: mouse hearts after myocardial infarction; experiment: Metabolomic profiling of hearts post-MI; type: in vivo, mice
Protocol: Metabolomic profiling. Hearts from 4 control and 4 MCB-613-treated mice were isolated 24 hours post-MI, perfused with 10 mM KCl, snap frozen in liquid nitrogen and stored at −80° C. 10 mgs of tissue was analyzed for fatty acids and carnitines normalized to 3 normal liver control samples. Fatty acids were normalized by Internal Standard L-Tryptophan and carnitines normalized by Internal Standard L-Zeatine.

[4] = tested on: mice after myocardial infarction; experiment: Progressive maximal exercise test, indirect calorimetry (VO2, VCO2); type: in vivo; details: three weeks post-MI
Protocol: RER, VO2 and VCO2 measurements. Respiratory exchange ratio (RER), oxygen consumption (VO^2) and carbon dioxide expiration (VCO2) were measured by indirect calorimetry using a progressive maximal exercise test until mice reached exhaustion.
RER, VO2 and VCO2 measurements. RER, VO2 and VCO2 were measured by indirect calorimetry using a progressive maximal exercise test until mice reached exhaustion.

[5] = tested on: mice after myocardial infarction; experiment: Myocardial infarction model, permanent LAD ligation (echocardiography, histology, immunostaining, PET, EM); type: in vivo, ICR (CD1) mice; details: repeat injections three days at weeks 8 and 16

For CCC1C/C(=C\c2cccnc2)C(=O)/C(=C/c2cccnc2)C1 (stereo not shown) [MCB-613], the “intrinsic transcriptional activity of SRCs (luciferase)” value [1] was “selectively stimulates the intrinsic transcriptional activity of SRCs”, the tube formation [2] was “stimulated tube formation” and the cardioprotective carnitine metabolites ([3]; mouse hearts 24 hours post-MI) was “increases cardioprotective carnitine metabolites”. The “β-oxidation of long-chain fatty acids” value ([3]; mouse hearts 24 hours post-MI) was “increases β-oxidation of long-chain fatty acids”, the methylglutaryl carnitine ([3]; mouse hearts post-MI) was “decreases methylglutaryl carnitine” and the “VCO2 and VO2 during exercise” value [4] was “VCO2 and VO2 are elevated”. The “effect of repeat injections on ejection fraction” value [5] was “did not alter ejection fractions”.
